Data taken from patent publication EP0097031B1, “Nonapeptide and decapeptide analogs of LHRH useful as LHRH antagonists, their preparation and compositions containing them” (SYNTEX (U.S.A.) INC., priority 1982, dated 1988).
dPhe(4-Cl) = N[C@H](Cc1ccc(Cl)cc1)C(=O)O; d2Nal = N[C@H](Cc1ccc2ccccc2c1)C(=O)O; dDeh = not defined here

test system: female mice; assay: acute subcutaneous toxicity in mice (21-day observation); format: in vivo; conditions: administered subcutaneously to each of 6 female mice, 0.3 m.g. per animal (or 12 mg/kg body weight)
Method: Compounds 8,16,18,19 and 24 from Example 8 were administered subcutaneously to each of 6 female mice at a dose level of 0.3 m.g. per animal (or 12 mg/kg body weight). During an observation period of 21 days, no deaths were recorded in any of the treatment groups.
The acute subcutaneous LD50 in mice is thus greater than 12 mg/kg for these compounds.

| Substance | deaths recorded during an observation period of 21 days |
| --- | --- |
| N-Ac-D-Nal(2)-D-p-Cl-Phe-D-Trp-Ser-Tyr-D-Deh-Leu-Arg-Pro-D-AlaNH2 [Compound 19] | no deaths |
| N-Ac-D-p-Cl-Phe-D-p-Cl-Phe-D-Trp-Ser-Tyr-D-Dph-Leu-Arg-Pro-D-AlaNH2 [Compound 8] | no deaths |
| N-Ac-D-Nal(2)-D-p-Cl-Phe-D-Trp-Ser-Tyr-D-Deh-Leu-Arg-Pro-GlyNH2 ({Ac-d2Nal-dPhe(4-Cl)-dW-Ser-Tyr-dDeh}-LRPG-NH2; reading uncertain; also: printed as N-Ac-D-Nal(2)-D-p-Cl-Phe-D-Trp-Ser-Tyr-D-Deh-Leu-Arg-Pro-GlyNH2) [Compound 18] | no deaths |
| N-Ac-D-Nal(2)-D-p-F-Phe-D-Trp-Ser-Tyr-D-Deh-Leu-Arg-Pro-GlyNH2 [Compound 16] | no deaths |
